# Data as given in patent US20180036270A1, “A METHOD OF PROTECTING AGAINST CARBONYL STRESS INDUCED ISCHEMIA-REPERFUSION INJURY IN THE DIABETIC BRAIN VIA ADMINISTRATION OF N-ACETYLCYSTEINE” (Board of Supervisors of Louisiana State University and …, priority 2015, published 2018).
# Entries after “also recorded” stand apart in the source; their conditions may differ.
# Assays:
# [1] = system: brain protein carbonyl contents; experiment: Assay of brain protein carbonyls; format: in vivo, mouse; settings: 2 week diabetic mice, NAC 1 week
# Procedure: The extent of protein glycation was determined by measuring total protein carbonyl contents. Briefly, the brain homogenate was incubated with 10 mM of 2, 4-dinitro-phenylhydrazine (DNPH) in 2M hydrochloride acid (1:2 volume) for 1 h followed by precipitation with trichloroacetic acid (final concentration 10%). Following centrifugation, the precipitant was washed 3 times with ethanol-ethyl acetate (1:1) to remove free DNPH. The pellets were redissolved in 0.6 ml of 6 M guanidine hydrochloride solution containing 20 mM potassium phosphate (pH=2.3 adjusted with trifluoroacetic acid) at 37° C., and the insoluble materials were removed by centrifugation for 3 min at 11000 g. The absorbance was monitored at 366 nm, and protein carbonyl contents quantified using the extinction coefficient of 22000 M^−1 cm^−1.
# [2] = system: STZ-treated diabetic mice, I/R brain injury; experiment: Middle cerebral artery occlusion-reperfusion (MCAoR) brain infarct area in diabetic mice; format: in vivo, mouse; settings: 2 mM NAC in drinking water 1 or 3 weeks before MCAoR, 45 min ischemia, 24 h reperfusion
# Procedure: Turning now to FIGS. 1A-1C, a brief description concerning the various components of the present invention will now be briefly discussed. As shown, ischemia/reperfusion (I/R) injury in control and diabetic brain was determined using the middle cerebral artery occlusion-reperfusion (MCAoR) model of Koizumi. MCA occlusion was for 45 min and reperfusion for 24 h. Diabetes model were: mice injected with streptozotocin (STZ) or Akita mice lacking the Insulin-2 gene which spontaneously developed diabetes in 4 wks. Results are mean±SE. NT=no treatment; Veh=citrate buffer; Veh+STZ=4 week post STZ. Ak—Akita. The post I/R infarct area is represented by the unstained (white) regions of left brain sections.
# Turning to FIGS. 12A-12C, I/R injury in control and diabetic brain was determined using the middle cerebral artery occlusion-reperfusion (MCAoR) model of Koizumi. MCA occlusion was for 45 min and reperfusion for 24 h. Diabetes was induced with streptozotocin (STZ) and stroke was induced in 4-week diabetic mice. NAC (2 mM) was given in drinking water for 3 weeks. Results are mean±SE. Veh=citrate buffer; STZ=4 week post STZ. The post I/R infarct area is represented by the unstained (white) regions of left brain sections after staining with TTC.
# Four-week-old male C57BL/6J mice, weighing 18-20 g, were purchased from Jackson Laboratory. […]
# STZ diabetic mice = experiment: Tail bleed time as measure of coagulation; format: in vivo, mouse; settings: 20 week diabetic mice; NAC 2 mM in drinking water for 3 weeks
# Procedure: Turning to FIG. 24, as a measure of coagulation, tail bleed time was determined in animals that were diabetic for 20 weeks.
# [3] = system: human brain microvascular endothelial cells (IHECs); experiment: MG-occludin adduct formation in IHECs (Western blot, immunoprecipitation); format: cell-based; settings: IHECs in 5 mM glucose exposed to MG for 4 h with 2 mM NAC
# [4] = system: diabetic mice with transient ischemic attacks; experiment: Thrombosis after transient ischemic attack (TIA) in diabetic mice; format: in vivo, mouse; settings: diabetes+TIA mice given NAC
# [5] = system: cerebral microvessels of STZ diabetic mice; experiment: Light-dye induced thrombosis in cerebral arterioles and venules of STZ diabetic mice; format: in vivo, mouse
# [6] = system: MG-protein adducts, occludin, GCLc in diabetic mouse brain; experiment: Western blot of MG-protein adducts, occludin, GCLc and occludin glycation in brain; format: in vivo; settings: STZ mice, NAC 3 weeks
# Procedure: Representative immunoblots are shown. The bar graphs show the quantitation of the protein band intensities normalized to β-actin; n=5/grp. […] Brain tissues were homogenized with RIPA lysis buffer containing 50 mM Tris, pH 8.0, 150 mM sodium chloride, 0.5% sodium deoxycholate, 0.1% SDS and protease inhibitor cocktail. Total protein (20 μg) per sample was loaded on 10% SDS-polyacrylamide gels. Electrophoresis was performed at 150V for 1 h, and transfer onto PVDF membranes at 100 V for 1 h. The membranes were blocked in 5% nonfat milk in TBST buffer containing 20 mM Tris, 137 mM NaCl, 0.1% Tween20, pH 7.6 for 40 min at room temperature followed by overnight incubation with either rabbit-anti-mouse occludin polyclonal antibody (1:2000), rabbit-anti-mouse GCGc polyclonal antibody (1:2000) or mouse anti-MG monoclonal antibody (1:2000) at 4° C. on an agitator. The second day, the PVDF membranes were incubated with HRP-conjugated goat-anti-rabbit or sheep-anti-mouse secondary antibody (1:10000) for 2 h at room temperature. Protein expression was detected using enhanced chemiluminescence (BIO-RAD) according to the manufacturer's instructions. The membranes were stripped and reprobed with anti-mouse actin monoclonal antibody (1:5000) to verify equal protein loading.
smiles,measurement,setting,value
"CC(=O)N[C@@H](CS)C(=O)O [NAC, N-acetylcysteine]",brain protein carbonyl contents,[1],highly effective in attenuating; also recorded: decreased significantly; also recorded: significantly attenuated
same,percent infarct area,[2],significantly attenuated; also recorded: protects the diabetic brain against injury induced by I/R
same,tail bleed time,STZ diabetic mice,prevented this accelerated coagulation; also recorded: reversed
same,occludin glycation (MG-occludin adduct),[3],prevent the formation of MG-occludin adducts; also recorded: prevented
same,thrombosis time,[4],some improvement
same,thrombosis onset and cessation times in cerebral venules and arterioles,"[5]; 6 and 20 week diabetic mice, NAC 2 mM in drinking water for 3 weeks",provided protection against the accelerated thrombosis in both types of vessels
same,time to onset of thrombosis in brain microvessels,"[5]; 20 week diabetic mice, NAC 2 mM in drinking water for 1 week",decreases the accelerated onset of thrombosis
same,MG-adduct formation in brain,[6],significantly decreased
same,occludin glycation in brain (immunoprecipitation),[6],significantly decreased
same,total protein expression of GCLc,[6],does not alter
same,total protein expression of occludin,[6],does not alter
